# Source: patent publication US20060106048A1, “Furoisoquinoline derivative and use thereof” (priority 2002, published 2006)
# Structures can show the parent of a compound that is named as a salt.
# Target: T1, recombinant human brain-derived phosphodiesterase 4D3 (Homo sapiens, UniProt Q08499)
# T1 construct: GST; made in house; host or cells: Escherichia coli BL21/pPDE4D3 (FERM BP-7075)
# Assay: Assay of phosphodiesterase IV-inhibiting action (SPA, [3H]cAMP)
# Format: biochemical
# Conditions: recombinant human brain-derived phosphodiesterase 4D3, [3H]cAMP, 30 minutes at 30° C.; activity without compound = 100%; read-out: Phosphodiesterase 4D inhibiting action (IC50)
# Excerpt: Assay of Phosphodiesterase IV-Inhibiting Action
# (1) Expression of Recombinant Human Brain-Derived Phosphodiesterase 4D3 in Escherichia coli and Purification Thereof.
# Using the Escherichia coli BL21/pPDE4D3 (FERM BP-7075) producing recombinant human brain-derived phosphodiesterase 4D3, a recombinant human brain-derived phosphodiesterase 4D3 was obtained. The expression and purification of E. coli were in accordance with the protocol attached to GST Gene Fusion System (Pharmacia).
# (2) Assay of Phosphodiesterase IV-Inhibiting Action
# To a 96-well plate (OPTI plate, Packard), 10 μl of a buffer solution [0.5 M Tris-HCl (pH 7.5), 83 mM MgCl2, 17 mM EGTA], 10 μl of the recombinant human brain-derived phosphodiesterase 4D3 (0.0034 mg/ml) obtained in Section (1) described above, 65 μl of Ultrapure water, 5 μl of an inhibitor sample and 10 μl of [^3H] cAMP were added and reacted for 30 minutes at 30° C. After completing the reaction, 50 μl of SPA beads solution [18 mg/ml Yttrium silicate beads, 18 mM ZnSO4] was added thereto, and the mixture was allowed to stand at room temperature for about 20 minutes. The radioactivity was counted using a scintillation counter (Topcount, Packard). Inhibiting activity of the compound against recombinant human brain-derived phosphodiesterase 4D3 was calculated, based on that enzymatic activity under absence of the compound was 100%.
# T1 sequence (Q08499 1-673 isoform Q08499-2): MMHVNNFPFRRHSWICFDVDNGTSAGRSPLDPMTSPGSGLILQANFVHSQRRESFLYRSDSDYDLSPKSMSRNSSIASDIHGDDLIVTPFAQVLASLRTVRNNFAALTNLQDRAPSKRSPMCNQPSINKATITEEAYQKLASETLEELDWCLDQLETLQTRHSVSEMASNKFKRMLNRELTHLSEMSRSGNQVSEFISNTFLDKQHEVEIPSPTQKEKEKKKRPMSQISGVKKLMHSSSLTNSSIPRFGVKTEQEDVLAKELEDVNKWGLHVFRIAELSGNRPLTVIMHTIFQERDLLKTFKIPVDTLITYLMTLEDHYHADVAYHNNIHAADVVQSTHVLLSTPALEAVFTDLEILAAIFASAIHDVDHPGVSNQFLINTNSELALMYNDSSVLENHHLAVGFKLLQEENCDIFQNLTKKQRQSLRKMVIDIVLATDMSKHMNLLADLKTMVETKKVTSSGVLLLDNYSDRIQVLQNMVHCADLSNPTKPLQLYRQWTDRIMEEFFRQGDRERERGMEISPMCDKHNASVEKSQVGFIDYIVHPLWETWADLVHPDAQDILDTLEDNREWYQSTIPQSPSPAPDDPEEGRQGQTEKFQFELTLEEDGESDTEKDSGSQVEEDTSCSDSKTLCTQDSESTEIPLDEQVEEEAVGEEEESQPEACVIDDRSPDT
row,IC50 [nM],SMILES
1,4.01,"CCOc1cc2c(c3c1OC(C)(C)C3)C(c1ccc(C(=O)OC)c(NC(C)=O)c1)=NC(C)(C)C2 [Example 17, Methyl 2-(acetylamino)-4-(6-ethoxy-3,4,8,9-tetrahydro-3,3,8,8-tetramethylfuro[2,3-h]isoquinolin-1-yl)benzoate]"
2,3.27,"CCOc1cc2c(c3c1OC(C)(C)C3)C(c1ccc(COCC(=O)OC)cc1)=NC(C)(C)C2 [Example 94, Methyl [[4-(6-ethoxy-3,4,8,9-tetrahydro-3,3,8,8-tetramethylfuro[2,3-h]isoquinolin-1-yl)phenyl]methoxy]acetate hydrochloride]"
3,10.9,"CCOc1cc2c(c3c1OC(C)(C)C3)C(c1ccc(COCC(=O)O)cc1)=NC(C)(C)C2 [Example 95, [[4-(6-Ethoxy-3,4,8,9-tetrahydro-3,3,8,8-tetramethylfuro[2,3-h]isoquinolin-1-yl)phenyl]methoxy]acetic acid hydrochloride]"
4,11.5,"CCOc1cc2c(c3c1OC(C)(C)C3)C(c1ccc(C(C)(C)C(=O)O)cc1)=NC(C)(C)C2 [Example 118, 4-(6-Ethoxy-3,4,8,9-tetrahydro-3,3,8,8-tetramethylfuro[2,3-h]isoquinolin-1-yl)-α,α-dimethylbenzeneacetic acid hydrochloride hydrate]"
5,3.5,"CCOc1cc2c(c3c1OC(C)(C)C3)C(c1ccc(C(C)(C)C(N)=O)cc1)=NC(C)(C)C2 [Example 120, 4-(6-Ethoxy-3,4,8,9-tetrahydro-3,3,8,8-tetramethylfuro[2,3-h]isoquinolin-1-yl)-α,α-dimethylbenzeneacetamide]"

# More lines, now with the values behind:
row,SMILES,IC50 [nM]
1,"CCOc1cc2c(c3c1OC(C)(C)C3)C(c1ccc(C(=O)O)c(NCc3ccccc3)c1)=NC(C)(C)C2 [Example 6, 4-(6-Ethoxy-3,4,8,9-tetrahydro-3,3,8,8-tetramethylfuro[2,3-h]isoquinolin-1-yl)-2-[(phenylmethyl)amino]benzoic acid]",0.566
2,"CCOc1cc2c(c3c1OC(C)(C)C3)C(c1ccc(C(=O)OC)c(NC(=O)c3ccccn3)c1)=NC(C)(C)C2 [Example 21, Methyl 4-(6-ethoxy-3,4,8,9-tetrahydro-3,3,8,8-tetramethylfuro[2,3-]isoquinolin-1-yl)-2-[(2-pyridinylcarbonyl)amino]benzoate]",1.89
3,"CCOc1cc2c(c3c1OC(C)(C)C3)C(c1ccc(C(N)=O)c(NC(=O)c3ccccn3)c1)=NC(C)(C)C2 [Example 23, N-[2-(Aminocarbonyl)-5-(6-ethoxy-3,4,8,9-tetrahydro-3,3,8,8-tetramethylfuro[2,3-h]isoquinolin-1-yl)phenyl]-2-pyridinecarboxamide]",0.756
4,"CCOc1cc2c(c3c1OC(C)(C)C3)C(c1ccc(C(=O)O)c(NC(=O)c3ccc4ccccc4n3)c1)=NC(C)(C)C2 [Example 30, 4-(6-Ethoxy-3,4,8,9-tetrahydro-3,3,8,8-tetramethylfuro[2,3-h]isoquinolin-1-yl)-2-[(2-quinolinylcarbonyl)amino]benzoic acid]",0.761
5,"CCNc1cc(C2=NC(C)(C)Cc3cc(OCC)c4c(c32)CC(C)(C)O4)ccc1C(=O)O [Example 50, 4-(6-Ethoxy-3,4,8,9-tetrahydro-3,3,8,8-tetramethylfuro[2,3-h]isoquinolin-1-yl)-2-(ethylamino)benzoic acid]",8.4
6,"CCOc1cc2c(c3c1OC(C)(C)C3)C(c1ccc(C(=O)NC)c(NC(=O)c3ccccc3)c1)=NC(C)(C)C2 [Example 57, 2-(Benzoylamino)-4-(6-ethoxy-3,4,8,9-tetrahydro-3,3,8,8-tetramethylfuro[2,3-h]isoquinolin-1-yl)-N-methylbenzamide]",1.63
7,"CCOc1cc2c(c3c1OC(C)(C)C3)C(c1ccc(C#N)c(NCc3ccccc3)c1)=NC(C)(C)C2 [Example 74, 4-(6-Ethoxy-3,4,8,9-tetrahydro-3,3,8,8-tetramethylfuro[2,3-h]isoquinolin-1-yl)-2-[(phenylmethyl)amino]benzonitrile]",1.71
8,"CCOc1cc2c(c3c1OC(C)(C)C3)C(c1ccc(/C=C/C(=O)O)c(OC)c1)=NC(C)(C)C2 [Example 85, (E)-3-[4-(6-Ethoxy-3,4,8,9-tetrahydro-3,3,8,8-tetramethylfuro[2,3-h]isoquinolin-1-yl)-2-methoxyphenyl]-2-propenoic acid]",5.5
9,"CCOc1cc2c(c3c1OC(C)(C)C3)C(c1ccc(CC(=O)O)c(NC(=O)c3ccccn3)c1)=NC(C)(C)C2 [Example 124, 4-(6-Ethoxy-3,4,8,9-tetrahydro-3,3,8,8-tetramethylfuro[2,3-h]isoquinolin-1-yl)-2-[(2-pyridinylcarbonyl)amino]benzeneacetic acid]",0.637
